Bridge positions count the residues as written; N and C are the ends. Peptide text beside a SMILES is read from it.
Experiments:
[1] = test system: Colletotrichum graminicola
Saccharomyces cerevisiae = experiment: Growth inhibition by hairpin peptide alone, Saccharomyces cerevisiae; format: cell-based; conditions: hairpin peptide on its own
Text: Some α-hairpinin and β-hairpin peptides show efficacy on their own against pathogens at a concentration higher than the concentration used in a combination with a plant defensin.

| Structure (SMILES) | IC50 (Candida albicans) [µM] | IC50 (Fusarium graminearum) [µM] | IC50 [1] [µM] | IC50 (Trichophyton rubrum) [µM] | IC50 (Saccharomyces cerevisiae) [µM] |
| --- | --- | --- | --- | --- | --- |
| CC(C)[C@@H]1NC(=O)[C@H](CCCNC(=N)N)NC(=O)[C@H](Cc2ccccc2)NC(=O)[C@@H](NC(=O)[C@H](Cc2c[nH]c3ccccc23)NC(=O)[C@H](CCCNC(=N)N)NC(=O)[C@@H](N)CCCNC(=N)N)CSSC[C@@H](C(=O)N[C@@H](CCCNC(=N)N)C(N)=O)NC(=O)[C@H](CCCCN)NC(=O)[C@H](CCCNC(=N)N)NC(=O)[C@H](Cc2ccc(O)cc2)NC(=O)[C@@H]2CSSC[C@H](NC1=O)C(=O)N[C@@H](Cc1ccc(O)cc1)C(=O)N[C@@H](CCCNC(=N)N)C(=O)NCC(=O)N[C@@H](Cc1ccccc1)C(=O)N2 [Polyphemusin I] (H-RRWCFRVCYRGFCYRKCR-NH2; disulfide 4-17, 8-13; N-terminus and C-terminus assumed) | 4 | 3 | 6 | 1 | – |
| CSCC[C@@H]1NC(=O)[C@H](CCCNC(=N)N)NC(=O)[C@@H](NC(=O)[C@H](Cc2c[nH]c3ccccc23)NC(=O)[C@H](CCC(N)=O)NC(=O)[C@H](CC(C)C)NC(=O)[C@H](CC(=O)O)NC(=O)CNC(=O)[C@@H](N)CCCCN)CSSC[C@@H](C(=O)N[C@@H](CCCNC(=N)N)C(=O)N[C@@H](CCC(N)=O)C(=O)N[C@@H](CCCNC(=N)N)C(=O)N[C@@H](Cc2c[nH]cn2)C(=O)N[C@@H](CCCNC(=N)N)C(=O)NCC(=O)O)NC(=O)[C@H](CCC(=O)O)NC(=O)[C@H](CCCNC(=N)N)NC(=O)[C@H](CCC(=O)O)NC(=O)[C@@H]2CSSC[C@H](NC(=O)CNC1=O)C(=O)N[C@@H](CCC(N)=O)C(=O)N[C@@H](Cc1c[nH]c3ccccc13)C(=O)N[C@@H](CCC(N)=O)C(=O)N[C@@H](Cc1ccc(O)cc1)C(=O)NCC(=O)N[C@@H](CCCCN)C(=O)N[C@@H](CC(=O)O)C(=O)N[C@@H](CCC(N)=O)C(=O)NCC(=O)N[C@@H](CCCNC(=N)N)C(=O)N[C@@H](CCCNC(=N)N)C(=O)N[C@@H](CO)C(=O)N[C@@H](CCC(=O)O)C(=O)N2 [Sit_HPN_100A] (H-KGDLQWCRMGCQWQYGKDQGRRSECERECRQRHRG-OH; disulfide 7-29, 11-25 (inferred); N-terminus and C-terminus assumed) | 8 | 8 | 14 | 20 | 8 |
